Measured values as given in ChEMBL document CHEMBL1132510, “[35S]S-[5-(4-benzoylphenyl)pentyl]glutathione: a versatile radioligand targeting GS-X pumps with the ability of photoaffinity labeling” (Bioorg Med Chem Lett, 1999).

How the values were obtained:
[1] = tested on: HL-60; test: Compound was evaluated for the competitive inhibition of the MRP1/GS-X pump mediated transport of LTC4 in the cisplatin-resistant human leukemia HL-60 (HL-60/R-CP) cells; type: functional, cell-based
[2] = tested on: HL-60; test: Inhibitory activity against MRP1/GS-X pump mediated transport of delta7-PGA1 methyl ester glutathione conjugate in the cisplatin-resistant human leukemia HL-60 (HL-60/R-CP) cells; type: functional, cell-based

## N[C@@H](CCC(=O)N[C@@H](CSCCCCCc1ccc(C(=O)c2ccccc2)cc1)C(=O)NCC(=O)O)C(=O)O
[1]
  IC50: 400 nM
[2]
  IC50: 520 nM
